For 29 molecules, IC50 results are on record in patent publication US20260265265A1, “NOVEL BENZIMIDAZOLONE DERIVATIVE COMPOUND AS AUTOTAXIN INHIBITOR” (LG CHEM, LTD., priority 2023, published 2026).

This assay has as its target T1, Recombinant Human ENPP-2/Autotaxin (Homo sapiens, UniProt Q13822).
T1 construct: purchased R&D systems 5255-EN
Description: LysoPLD activity measurement (autotaxin enzyme inhibition, choline release, TOOS reagent). In kind it is biochemical. As to conditions: LysoPLD inhibitory activity; substrate 14:0 LysoPC; absorbance at 555 nm. A digest of the protocol: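 Enzyme and compound were preincubated for 30 min before adding 14:0 LysoPC substrate, diluted to 300 μM, for 90 minutes at 37° C. The choline product was quantified colorimetrically with TOOS reagent. Wells without compound held 1% DMSO.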
As for `O=C(O)c1cccc(Cn2c(=O)n(-c3cnn(CC4CCC4)c3)c3cc(Cl)ccc32)c1` [Example 91, 3-((5-chloro-3-(1-cyclobutylmethyl-1H-pyrazol-4-yl)-2-oxo-2,3-dihydro-1H-benzo[d]imidazol-1-yl)methyl)benzoic acid], the 50% inhibitory concentration (IC50) lay within 100 to 1000 nM.

Take `CCCn1cc(-n2c(=O)n(Cc3cccc(C(=O)O)c3F)c3ccc(Cl)c(F)c32)cn1` [Example 92, 3-((5-chloro-4-fluoro-2-oxo-3-(1-propyl-1H-pyrazol-4-yl)-2,3-dihydro-1H-benzo[d]imidazol-1-yl)methyl)-2-fluorobenzoic acid]: the IC50 lay in the range of 10 to 100 nM.

As for `O=C(O)c1cccc(C2(n3c(=O)n(-c4ccc(C(=O)N5CC6(CCOCC6)C5)cc4)c4cc(Cl)ccc43)CC2)c1` [Example 93, 3-(1-(3-(4-(7-oxa-2-azaspiro[3.5]nonane-2-carbonyl)phenyl)-5-chloro-2-oxo-2,3-dihydro-1H-benzo[d]imidazol-1-yl)cyclopropyl)benzoic acid], the IC50 is under 10 nM.

For the molecule `O=C(O)c1cccc(Cn2c(=O)n(-c3ccc(N4CCC(F)(F)CC4)cc3)c3cc(Cl)ccc32)c1` [Example 94, 3-((5-chloro-3-(4-(4,4-difluoropiperidin-1-yl)phenyl)-2-oxo-2,3-dihydro-1H-benzo[d]imidazol-1-yl)methyl)benzoic acid], the IC50 fell in the range of 10 to 100 nM.

Turning to `O=C(O)c1cccc(Cn2c(=O)n(-c3ccc(N4CCN(C(=O)C5CC5)CC4)cc3)c3cc(Cl)ccc32)c1` [Example 95, 3-((5-chloro-3-(4-(4-(cyclopropanecarbonyl)piperazin-1-yl)phenyl)-2-oxo-2,3-dihydro-1H-benzo[d]imidazol-1-yl)methyl)benzoic acid], the IC50 fell in the range of 10 to 100 nM.

Turning to `CC(C)OC(=O)N1CCN(c2ccc(-n3c(=O)n(Cc4cccc(C(=O)O)c4)c4ccc(Cl)cc43)cc2)CC1` [Example 96, 3-((5-chloro-3-(4-(4-(isopropoxycarbonyl)piperazin-1-yl)phenyl)-2-oxo-2,3-dihydro-1H-benzo[d]imidazol-1-yl)methyl)benzoic acid], the half-maximal inhibitory concentration (IC50) was 10 to 100 nM.

Regarding `CN1CCN(c2ccc(-n3c(=O)n(Cc4cccc(C(=O)O)c4)c4ccc(Cl)cc43)cc2)CC1` [Example 97, 3-((5-chloro-3-(4-(4-methylpiperazin-1-yl)phenyl)-2-oxo-2,3-dihydro-1H-benzo[d]imidazol-1-yl)methyl)benzoic acid], the half-maximal inhibitory concentration (IC50) fell in the range of 100 to 1000 nM.

In the case of `O=C(O)c1cccc(C2(n3c(=O)n(-c4ccc(C5CCCCC5)cc4)c4cc(Cl)ccc43)CC2)c1` [Example 98, 3-(1-(5-chloro-3-(4-cyclohexylphenyl)-2-oxo-2,3-dihydro-1H-benzo[d]imidazol-1-yl)cyclopropyl)benzoic acid], the IC50 was in the range of 100 to 1000 nM.

On to `O=C(O)c1cccc(C2(n3c(=O)n(-c4ccc(C5CCOCC5)cc4)c4cc(Cl)ccc43)CC2)c1` [Example 99, 3-(1-(5-chloro-2-oxo-3-(4-(tetrahydro-2H-pyran-4-yl)phenyl)-2,3-dihydro-1H-benzo[d]imidazol-1-yl)cyclopropyl)benzoic acid], for which the half-maximal inhibitory concentration (IC50) is under 10 nM.

On to `O=C(O)c1cccc(Cn2c(=O)n(-c3ccc(C4CCN(C(=O)C5CC5)CC4)cc3)c3cc(Cl)ccc32)c1` [Example 100, 3-((5-chloro-3-(4-(1-(cyclopropanecarbonyl)piperidin-4-yl)phenyl)-2-oxo-2,3-dihydro-1H-benzo[d]imidazol-1-yl)methyl)benzoic acid], for which the 50% inhibitory concentration (IC50) is 10 to 100 nM.

For `O=C(O)c1cccc(Cn2c(=O)n(-c3ccc(C4CCN(C(=O)C5CCC5)CC4)cc3)c3cc(Cl)ccc32)c1` [Example 101, 3-((5-chloro-3-(4-(1-(cyclobutanecarbonyl)piperidin-4-yl)phenyl)-2-oxo-2,3-dihydro-1H-benzo[d]imidazol-1-yl)methyl)benzoic acid], the IC50 is 100 to 1000 nM.

Turning to `CCC(=O)N1CCC(c2ccc(-n3c(=O)n(Cc4cccc(C(=O)O)c4)c4ccc(Cl)cc43)cc2)CC1` [Example 102, 3-((5-chloro-2-oxo-3-(4-(1-propionylpiperidin-4-yl)phenyl)-2,3-dihydro-1H-benzo[d]imidazol-1-yl)methyl)benzoic acid], the half-inhibitory concentration (IC50) is 10 to 100 nM.

Turning to `O=C(O)c1cccc(Cn2c(=O)n(-c3ccc(C4CCOCC4)cc3)c3cc(Cl)ccc32)c1` [Example 103, 3-((5-chloro-2-oxo-3-(4-(tetrahydro-2H-pyran-4-yl)phenyl)-2,3-dihydro-1H-benzo[d]imidazol-1-yl)methyl)benzoic acid], the IC50 lay within 10 to 100 nM.

Consider `O=C(O)c1cccc(Cn2c(=O)n(-c3ccc(C4=CCOCC4)cc3)c3cc(Cl)ccc32)c1` [Example 104, 3-((5-chloro-3-(4-(3,6-dihydro-2H-pyran-4-yl)phenyl)-2-oxo-2,3-dihydro-1H-benzo[d]imidazol-1-yl)methyl)benzoic acid], for which the IC50 was in the range of 10 to 100 nM.

On to `O=C(O)c1cccc(Cn2c(=O)n(-c3ccc(N4CCC(F)(F)C4)cc3)c3c(F)c(Cl)ccc32)c1` [Example 105, 3-((5-chloro-3-(4-(3,3-difluoropyrrolidin-1-yl)phenyl)-4-fluoro-2-oxo-2,3-dihydro-1H-benzo[d]imidazol-1-yl)methyl)benzoic acid], for which the IC50 is 100 to 1000 nM.

`O=C(O)c1cccc(C2(n3c(=O)n(-c4ccc(C5CCOCC5)cc4)c4cc(Cl)ccc43)CC2)c1F` [Example 106, 3-(1-(5-chloro-2-oxo-3-(4-(tetrahydro-2H-pyran-4-yl)phenyl)-2,3-dihydro-1H-benzo[d]imidazol-1-yl)cyclopropyl)-2-fluorobenzoic acid]: the concentration for half-maximal inhibition (IC50) was under 10 nM.

Consider `O=C(O)c1cccc(C2(n3c(=O)n(-c4ccc(C(=O)N5CC6(CCOCC6)C5)cc4)c4cc(Cl)ccc43)CC2)c1F` [Example 107, 3-(1-(3-(4-(7-oxa-2-azaspiro[3.5]nonane-2-carbonyl)phenyl)-5-chloro-2-oxo-2,3-dihydro-1H-benzo[d]imidazol-1-yl)cyclopropyl)-2-fluorobenzoic acid], for which the 50% inhibitory concentration (IC50) is under 10 nM.

With `O=C(O)c1cccc(Cn2c(=O)n(-c3ccc(C4CCOCC4)cc3)c3cc(Cl)ccc32)c1F` [Example 108, 3-((5-chloro-2-oxo-3-(4-(tetrahydro-2H-pyran-4-yl)phenyl)-2,3-dihydro-1H-benzo[d]imidazol-1-yl)methyl)-2-fluorobenzoic acid], the 50% inhibitory concentration (IC50) was in the range of 10 to 100 nM.

Regarding `O=C(O)c1cccc(Cn2c(=O)n(-c3ccc(C4=CCCCC4)cc3)c3cc(Cl)ccc32)c1` [Example 109, 3-((5-chloro-2-oxo-3-(2′,3′,4′,5′-tetrahydro-[1,1′-biphenyl]-4-yl)-2,3-dihydro-1H-benzo[d]imidazol-1-yl)methyl)benzoic acid], the IC50 is 100 to 1000 nM.

As for `O=C(O)c1cccc(Cn2c(=O)n(-c3ccc(C4=CCOC4)cc3)c3cc(Cl)ccc32)c1F` [Example 110, 3-((5-chloro-3-(4-(2,5-dihydrofuran-3-yl)phenyl)-2-oxo-2,3-dihydro-1H-benzo[d]imidazol-1-yl)methyl)-2-fluorobenzoic acid], the IC50 fell in the range of 10 to 100 nM.

Take `CC1CC=C(c2ccc(-n3c(=O)n(Cc4cccc(C(=O)O)c4F)c4ccc(Cl)cc43)cc2)CC1` (centres unmarked) [Example 111, 3-((5-chloro-3-(4′-methyl-2′,3′,4′,5′-tetrahydro-′[1,1′-biphenyl]-4-yl)-2-oxo-2,3-dihydro-1H-benzo[d]imidazol-1-yl)methyl)-2-fluorobenzoic acid]: the IC50 lay in the range of 100 to 1000 nM.

With `CC1(C)CC=C(c2ccc(-n3c(=O)n(Cc4cccc(C(=O)O)c4F)c4ccc(Cl)cc43)cc2)CC1` [Example 112, 3-((5-chloro-3-(4′,4′-dimethyl-2′,3′,4′,5′-tetrahydro-[1,1′-biphenyl]-4-yl)-2-oxo-2,3-dihydro-1H-benzo[d]imidazol-1-yl)methyl)-2-fluorobenzoic acid], the IC50 lay within 100 to 1000 nM.

For `CN(C)C(=O)c1ccc(-n2c(=O)n(CCc3cccc(C(=O)O)c3)c3ccc(Cl)cc32)cc1` [Example 113, 3-(2-(5-chloro-3-(4-(dimethylcarbamoyl)phenyl)-2-oxo-2,3-dihydro-1H-benzo[d]imidazol-1-yl)ethyl)benzoic acid], the half-maximal inhibitory concentration (IC50) lay within 100 to 1000 nM.

Turning to `CC1(C)Cc2cc(-n3c(=O)n(Cc4cccc(C(=O)O)c4)c4ccc(Cl)cc43)ccc2C1=O` [Example 115, 3-((5-chloro-3-(2,2-dimethyl-1-oxo-2,3-dihydro-1H-inden-5-yl)-2-oxo-2,3-dihydro-1H-benzo[d]imidazol-1-yl)methyl)benzoic acid], the IC50 was 100 to 1000 nM.

As for `CN1Cc2cc(-n3c(=O)n(Cc4cccc(C(=O)O)c4)c4ccc(Cl)cc43)ccc2C1=O` [Example 116, 3-((5-chloro-3-(2-methyl-1-oxoisoindolin-5-yl)-2-oxo-2,3-dihydro-1H-benzo[d]imidazol-1-yl)methyl)benzoic acid], the IC50 lay within 100 to 1000 nM.

Regarding `CN1Cc2cc(-n3c(=O)n(Cc4cccc(C(=O)O)c4F)c4ccc(Cl)cc43)ccc2C1=O` [Example 117, 3-((5-chloro-3-(2-methyl-1-oxoisoindolin-5-yl)-2-oxo-2,3-dihydro-1H-benzo[d]imidazol-1-yl)methyl)-2-fluorobenzoic acid], the IC50 fell in the range of 10 to 100 nM.

With `O=C(O)c1cccc(Cn2c(=O)n(-c3ccc(N4CCC(F)(F)CC4)cc3)c3cc(Cl)ccc32)c1F` [Example 118, 3-((5-chloro-3-(4-(4,4-difluoropiperidin-1-yl)phenyl)-2-oxo-2,3-dihydro-1H-benzo[d]imidazol-1-yl)methyl)-2-fluorobenzoic acid], the IC50 fell in the range of 10 to 100 nM.

As for `O=C(O)c1cccc(Cn2c(=O)n(-c3ccc(N4CCC(F)(F)C4)cc3)c3c(F)c(Cl)ccc32)c1F` [Example 119, 3-((5-chloro-3-(4-(3,3-difluoropyrrolidin-1-yl)phenyl)-4-fluoro-2-oxo-2,3-dihydro-1H-benzo[d]imidazol-1-yl)methyl)-2-fluorobenzoic acid], the IC50 was in the range of 10 to 100 nM.

Turning to `O=C(O)c1cccc(Cn2c(=O)n(-c3ccc(N4CC(O)C4)cc3)c3c(F)c(Cl)ccc32)c1F` [Example 120, 3-((5-chloro-4-fluoro-3-(4-(3-hydroxyazetidin-1-yl)phenyl)-2-oxo-2,3-dihydro-1H-benzo[d]imidazol-1-yl)methyl)-2-fluorobenzoic acid], the IC50 is 10 to 100 nM.
